Results taken from paper PMC9386018, “A lymphatic-absorbed multi-targeted kinase inhibitor for myelofibrosis therapy” (Nature Communications, 2022).
Values joined by “and” are separate entries in the source; they are usually repeats but may differ in a detail not shown here. Equal values may be shown once.

How the values were obtained:
mTOR = mTOR (Homo sapiens, UniProt P42345); test: Target kinase 10-point inhibition assay, mTOR; format: biochemical; conditions: replicates
Procedure: Quantitation of kinase inhibition was carried out by Life Technologies (Madison, WI) using the SelectScreen profiling platforms Z’-LYTE^TM and Adapta^TM. Single-point broad panel kinome screening was performed at 2.5 µM LP-182 against all kinases within the Z’-LYTE^TM and Adapta^TM assays (321 kinase isoforms, holoenzymes, or mutant variants). The average percent kinase inhibition from replicate data was ranked low to high, converted to a compatible identifier format, then input into Coral Human Kinome Visualization software for presentation analysis. […] Scaling of evolutionary distance for PI kinases is only relative and is based on literature analysis[62],[63]. Average percent kinome inhibition values from replicate data are supplied in Source Data file. […]. Corrected data was normalized to vehicle treated control values, and dose response percent kinase activity was analyzed by non-linear regression for determination of IC50 values.

SET-2 cells = test: SET-2 proliferation assay (CellTiter-Fluor); format: cell-based, human; conditions: 72 h
Procedure: Viable cells were counted by CellTiter-Fluor Assay (Promega) according to manufacturer’s protocol, and all fluorescence values were corrected by a no-cell control. […] Caspase activity was measured by Caspase-Glo 3/7 assay (Promega) according to the manufacturer’s protocol, and all luminescence values were corrected by a no-cell control. Dose response proliferation and Caspase activation data was normalized to vehicle treated control cells and analyzed by non-linear regression for determination of IC50 values. Data was generated from n = 3 independent experiments performed in replicate.

[1] = Pharmacokinetic analysis of plasma after intravenous and oral dosing
Procedure: Samples were centrifuged at 15,000 rpm for 10 min, then blood plasma was collected from the upper layer and frozen at −80 °C until analysis. […] Sample processing, chromatographic separation, MS, and MS/MS parameters used for analysis were determined by the core. […] Standard curves for peak area ratio of compound to internal standard (Astd/AIstd) vs. compound concentration were used to determine sample analyte concentrations through linear regression with a weighting average of 1/X^2. […] All pharmacokinetic parameters were estimated using non-compartmental analysis with Phoenix/WINONLIN, and provided by the core along with calculated sample analyte concentrations. Data was generated from n ≥ 3 individual animals sampled per time point per compound for each method of dosing.

mTOR, sequence (P42345 1360-2549 limits assumed): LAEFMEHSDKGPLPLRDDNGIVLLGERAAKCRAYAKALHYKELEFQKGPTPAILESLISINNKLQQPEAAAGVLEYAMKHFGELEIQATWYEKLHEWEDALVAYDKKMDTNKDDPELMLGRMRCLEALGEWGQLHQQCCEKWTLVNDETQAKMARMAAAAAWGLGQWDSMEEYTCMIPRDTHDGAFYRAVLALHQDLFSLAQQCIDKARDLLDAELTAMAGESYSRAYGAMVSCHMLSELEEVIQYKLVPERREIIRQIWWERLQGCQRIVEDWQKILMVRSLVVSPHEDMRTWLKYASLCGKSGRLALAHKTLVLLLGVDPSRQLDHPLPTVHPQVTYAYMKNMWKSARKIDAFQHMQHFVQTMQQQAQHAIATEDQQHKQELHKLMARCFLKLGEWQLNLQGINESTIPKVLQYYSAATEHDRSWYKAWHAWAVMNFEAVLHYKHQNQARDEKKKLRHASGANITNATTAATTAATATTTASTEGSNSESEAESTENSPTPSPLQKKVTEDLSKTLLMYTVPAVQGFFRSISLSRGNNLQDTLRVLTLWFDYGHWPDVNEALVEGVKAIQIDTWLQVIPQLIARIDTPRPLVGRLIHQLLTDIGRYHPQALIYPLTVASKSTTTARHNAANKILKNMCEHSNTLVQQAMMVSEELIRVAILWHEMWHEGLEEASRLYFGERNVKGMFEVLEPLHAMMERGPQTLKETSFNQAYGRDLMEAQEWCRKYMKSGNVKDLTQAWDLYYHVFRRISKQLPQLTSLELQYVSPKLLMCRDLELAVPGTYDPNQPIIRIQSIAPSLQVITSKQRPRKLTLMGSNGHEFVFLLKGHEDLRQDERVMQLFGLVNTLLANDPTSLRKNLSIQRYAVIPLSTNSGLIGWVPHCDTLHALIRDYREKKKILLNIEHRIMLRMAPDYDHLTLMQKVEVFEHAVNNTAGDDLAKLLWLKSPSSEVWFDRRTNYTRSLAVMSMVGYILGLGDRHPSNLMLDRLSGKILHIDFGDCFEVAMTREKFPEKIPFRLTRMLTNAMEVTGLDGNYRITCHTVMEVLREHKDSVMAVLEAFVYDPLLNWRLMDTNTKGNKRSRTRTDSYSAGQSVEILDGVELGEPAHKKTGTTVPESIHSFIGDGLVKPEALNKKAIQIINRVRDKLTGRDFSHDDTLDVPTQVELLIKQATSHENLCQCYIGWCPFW

Compound: O=C(NOCCOCCOCCOCCC(=O)N1CCN(c2cnc3ccc(-c4cnc(Cl)c(NS(=O)(=O)c5ccc(F)cc5)c4)cc3n2)CC1)c1ccc(F)c(F)c1Nc1ccc(I)cc1F [LP-182, N-(2-(2-(2-(3-(4-(7-(6-chloro-5-((4-fluorophenyl)sulfonamido)pyridin-3-yl)quinoxalin-2-yl)piperazin-1-yl)-3-oxopropoxy)ethoxy)ethoxy)ethoxy)-3,4-difluoro-2-((2-fluoro-4-iodophenyl)amino)benzamide]
- activity at 0.000495 µM (mTOR; 0.495 nM): 95%
- Kinase Activity (%) (mTOR; 0.495 nM, 0.000495 µM): 99% and 98% and 101% and 94% and 96%
- activity at 0.00152 µM (mTOR; 1.52 nM): 97%
- Kinase Activity (%) (mTOR; 1.52 nM, 0.00152 µM): 99% and 100% and 94% (2×)
- activity at 0.00457 µM (mTOR; 4.57 nM): 91%
- Kinase Activity (%) (mTOR; 4.57 nM, 0.00457 µM): 92% and 94% and 87% and 88%
- activity at 0.0412 µM (mTOR; 41.2 nM): 52%
- Kinase Activity (%) (mTOR; 41.2 nM, 0.0412 µM): 63% and 57% (2×) and 47% (2×)
- activity at 0.123 µM (mTOR; 123 nM): 29%
- Kinase Activity (%) (mTOR; 123 nM, 0.123 µM): 30% (2×) and 32% and 31%
- activity at […] (mTOR; 370 nM): 13%
- Kinase Activity (%) (mTOR; 1110 nM, 1.11 µM): 4% and 3% (2×) and 5% and 1% and 2%
- Kinase Activity (%) (mTOR; 3330 nM, 3.33 µM): 0% (4×) and -1% and -2%
- Kinase Activity (%) (mTOR; 10000 nM, 10 µM): 2% and -1% (4×) and 1%
- Growth (%) (SET-2 cells; 0.15625 µM, replicates (Fig. 2d)): 82.3145% and 74.8007% and 92.2424% and 95.23%
- Growth (%) (SET-2 cells; 0.3125 µM, replicates (Fig. 2d)): 82.5275% and 93.6976% and 99.8925% and 94.4152% and 100.311% and 101.419%
- Growth (%) (SET-2 cells; 0.625 µM, replicates (Fig. 2d)): 75.7591% and 84.1959% and 99.0777% and 114.242% and 99.4809% and 107.316%
- Growth (%) (SET-2 cells; LP-182 0.625 µM, replicates): 94.49% and 102.748% and 105.532% and 109.611% and 111.9% and 115.3% and 97.84% and 53.1792% and 80% and 77.2254% and 41.1561% and 108.317%
- Growth (%) (SET-2 cells; LP-182 5 µM, replicates): 88.52% and 52.137% and 67.274% and 67.1508% and 90.41% and 85.13% and 85.23% and 51.3295% and 50.867% (2×) and 75.3757% and 52.71%
- Growth (%) (SET-2 cells; LP-182 10 µM, replicates): 67.22% and 40.3515% and 41.5713% and 43.4811% and 65.18% and 66.4% and 66.22% and 0% and 7.399% and 24.9711% (2×) and 44.7503%
- Growth (%) (SET-2 cells; LP-182 20 µM, replicates): 33.48% and 38.226% and 25.5964% and 32.3363% and 26.13% and 25.92% and 25.14% and 0% (4×) and 25.7197%
- Growth (%) (SET-2 cells; LP-182 40 µM, replicates): 13.5% and 29.145% and 27.7897% and 24.9557% and 14.69% and 13.53% and 12.78% and 0% (4×) and 22.7255%
- IC50 (SET-2 cells; Homo sapiens, read-out: IC50, inhibition of cellular proliferation): 7.6 ± 0.82 µM
- Concentration ([1]; Supplementary Figure 6a, i.v., Time 0.167 h, individual replicates): 11100 ng/mL and 8270 ng/mL and 5220 ng/mL
- Concentration ([1]; Supplementary Figure 6a, i.v., Time 0.5 h, individual replicates): 807 ng/mL and 646 ng/mL
- Concentration ([1]; Supplementary Figure 6a, i.v., Time 1 h, individual replicates): 451 ng/mL and 857 ng/mL
- Concentration ([1]; Supplementary Figure 6a, i.v., Time 2 h, individual replicates): 275 ng/mL and 179 ng/mL
- Concentration ([1]; Supplementary Figure 6a, i.v., Time 4 h, individual replicates): 141 ng/mL and 75.9 ng/mL
- Concentration ([1]; Supplementary Figure 6a, i.v., Time 7 h, individual replicates): 51.4 ng/mL and 34.3 ng/mL
- Concentration ([1]; Supplementary Figure 6a, i.v., Time 16 h, individual replicates): 30.6 ng/mL and 29.3 ng/mL and 5.58 ng/mL
- Concentration ([1]; Supplementary Figure 6a, i.v., Time 24 h, individual replicates): 7.68 ng/mL and 8.28 ng/mL
- Concentration ([1]; Supplementary Figure 6a, p.o., Time 0.167 h, individual replicates): 731 ng/mL and 1660 ng/mL and 900 ng/mL
- Concentration ([1]; Supplementary Figure 6a, p.o., Time 0.5 h, individual replicates): 2150 ng/mL and 2630 ng/mL
- Concentration ([1]; Supplementary Figure 6a, p.o., Time 1 h, individual replicates): 1580 ng/mL and 1950 ng/mL
- Concentration ([1]; Supplementary Figure 6a, p.o., Time 2 h, individual replicates): 424 ng/mL and 145 ng/mL and 74.1 ng/mL
- Concentration ([1]; Supplementary Figure 6a, p.o., Time 4 h, individual replicates): 146 ng/mL and 522 ng/mL and 339 ng/mL
- Concentration ([1]; Supplementary Figure 6a, p.o., Time 7 h, individual replicates): 331 ng/mL and 97.6 ng/mL and 1560 ng/mL
- Concentration ([1]; Supplementary Figure 6a, p.o., Time 16 h, individual replicates): 79.2 ng/mL and 205 ng/mL and 265 ng/mL
- Concentration ([1]; Supplementary Figure 6a, p.o., Time 24 h, individual replicates): 401 ng/mL and 114 ng/mL and 295 ng/mL
- concentration at 0.5 h ([1]; female, CD-1, mouse, plasma, iv, 15 mg kg^−1, Concentration (ng/mL), mice, single i.v. LP-182 15 mg kg^−1, 0.5 h, analyte = label, individual animals): 1180 ng/mL
- concentration at 1 h ([1]; female, CD-1, mouse, plasma, iv, 15 mg kg^−1, Concentration (ng/mL), mice, single i.v. LP-182 15 mg kg^−1, 1 h, analyte = label, individual animals): 524 ng/mL
- concentration at 2 h ([1]; female, CD-1, mouse, plasma, iv, 15 mg kg^−1, Concentration (ng/mL), mice, single i.v. LP-182 15 mg kg^−1, 2 h, analyte = label, individual animals): 275 ng/mL
- concentration at 4 h ([1]; female, CD-1, mouse, plasma, iv, 15 mg kg^−1, Concentration (ng/mL), mice, single i.v. LP-182 15 mg kg^−1, 4 h, analyte = label, individual animals): 83.2 ng/mL
- concentration at 7 h ([1]; female, CD-1, mouse, plasma, iv, 15 mg kg^−1, Concentration (ng/mL), mice, single i.v. LP-182 15 mg kg^−1, 7 h, analyte = label, individual animals): 29.2 ng/mL
- concentration at 24 h ([1]; female, CD-1, mouse, plasma, iv, 15 mg kg^−1, Concentration (ng/mL), mice, single i.v. LP-182 15 mg kg^−1, 24 h, analyte = label, individual animals): 9.67 ng/mL
- concentration at 0.5 h ([1]; female, CD-1, mouse, plasma, iv, 15 mg kg^−1, Concentration, Supplementary Figure 6a, Time 0.5 h, individual replicates): 1180 ng/mL
- concentration at 1 h ([1]; female, CD-1, mouse, plasma, iv, 15 mg kg^−1, Concentration, Supplementary Figure 6a, Time 1 h, individual replicates): 524 ng/mL
- concentration at 2 h ([1]; female, CD-1, mouse, plasma, iv, 15 mg kg^−1, Concentration, Supplementary Figure 6a, Time 2 h, individual replicates): 275 ng/mL
- concentration at 4 h ([1]; female, CD-1, mouse, plasma, iv, 15 mg kg^−1, Concentration, Supplementary Figure 6a, Time 4 h, individual replicates): 83.2 ng/mL
- concentration at 7 h ([1]; female, CD-1, mouse, plasma, iv, 15 mg kg^−1, Concentration, Supplementary Figure 6a, Time 7 h, individual replicates): 29.2 ng/mL
- concentration at 24 h ([1]; female, CD-1, mouse, plasma, iv, 15 mg kg^−1, Concentration, Supplementary Figure 6a, Time 24 h, individual replicates): 9.67 ng/mL
- half-life ([1]; female, CD-1, mouse, plasma, iv, 15 mg/kg): 7.9 h
- concentration at 0.5 h ([1]; female, CD-1, mouse, plasma, po, 400 mg kg^−1, Concentration (ng/mL), mice, single p.o. LP-182 400 mg kg^−1, 0.5 h, analyte = label, individual animals): 2530 ng/mL
- concentration at 1 h ([1]; female, CD-1, mouse, plasma, po, 400 mg kg^−1, Concentration (ng/mL), mice, single p.o. LP-182 400 mg kg^−1, 1 h, analyte = label, individual animals): 1240 ng/mL
- concentration at 0.5 h ([1]; female, CD-1, mouse, plasma, po, 400 mg kg^−1, Concentration, Supplementary Figure 6a, Time 0.5 h, individual replicates): 2530 ng/mL
